Our source for the Ki values is patent US9856263B2, “Heteroaromatic compounds and their use as dopamine D1 ligands” (PFIZER INC., priority 2014, dated 2018).

The assay has as its target Human D1 Receptor (Homo sapiens (Human), UniProt P21728). As to the kind of experiment: Human D1 receptor binding assay ([3H]-SCH23390 competition binding). To be noted: over-expressing LTK human cell lines, 0.5 nM [3H]-SCH23390, 30 min at 37° C., footnote a = single determination, b = geometric mean of ≧5 determinations. As for the experimental part: D1 binding assays were performed using over-expressing LTK human cell lines. […] These ligand and tissue concentrations were used in time course studies to determine linearity and equilibrium conditions for binding. […] The pellet was resuspended in assay buffer [50 mM Tris (pH 7.4@ RT) containing 4 mM MgSO4 and 0.5 mM EDTA]. […] Non-specific binding was determined by radioligand binding in the presence of a saturating concentration of (+)-Butaclamol (10 μM), a D1 antagonist After a 30 minute incubation period at 37° C., assay samples were rapidly filtered through Unifilter-96 GF/B PEI-coated filter plates and rinsed with 50 mM Tris buffer (pH 7.4 at 4° C.). […] Ki values were calculated according to the Cheng-Prusoff equation: […]

Setting [1] is: read-out: Human D1 Receptor Binding, Ki (nM), Geometric mean of 2-4 determinations (unless otherwise indicated).

Where two headings read alike, the source gives them in different places. Bounds are passed on as bounds.

Chain of Human D1 Receptor (P21728 whole entry): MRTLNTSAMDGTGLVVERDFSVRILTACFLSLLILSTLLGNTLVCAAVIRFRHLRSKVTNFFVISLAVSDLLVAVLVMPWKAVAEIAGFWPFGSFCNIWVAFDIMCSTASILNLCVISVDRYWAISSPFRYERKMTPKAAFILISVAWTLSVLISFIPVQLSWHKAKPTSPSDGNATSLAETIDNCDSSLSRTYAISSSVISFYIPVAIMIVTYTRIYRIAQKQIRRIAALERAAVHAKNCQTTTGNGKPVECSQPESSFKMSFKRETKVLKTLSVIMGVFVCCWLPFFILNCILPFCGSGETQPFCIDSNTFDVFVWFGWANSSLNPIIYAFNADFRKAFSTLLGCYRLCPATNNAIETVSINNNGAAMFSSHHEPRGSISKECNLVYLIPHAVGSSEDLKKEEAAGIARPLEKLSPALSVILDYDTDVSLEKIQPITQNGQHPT

Broadly, the Ki is a dissociation constant, usually derived from enzyme kinetics or from competition with a known ligand. In the case of `Cc1cc(Oc2nccn3cccc23)ccc1-c1c(C)cnnc1C` (single isomer, unassigned) [Example 12, (−)-1-[4-(3,5-dimethylpyridazin-4-yl)-3-methylphenoxy]pyrrolo[1,2-a]pyrazine], under setting [1], the Ki came out at 96.3 nM.
With `Cc1cc(Oc2nccn3cccc23)ccc1-c1c(C)cnnc1C` (single isomer, unassigned) [Example 13, (+)-1-[4-(3,5-dimethylpyridazin-4-yl)-3-methylphenoxy]pyrrolo[1,2-a]pyrazine], the Ki under setting [1] worked out at 13.1 nM.
Take `Cc1cc(Oc2nccn3cccc23)ccc1-c1c(C)ncnc1C` [Example 4, 1-[4-(4,6-dimethylpyrimidin-5-yl)-3-methylphenoxy]pyrrolo[1,2-a]pyrazine]: the Ki under setting [1] was 22.1 nM.
The same measure, in the same setting: then `Cc1cc(Oc2ncnn3cccc23)ccc1-c1c(C)ncnc1C` [Example 5, 4-[4-(4,6-dimethylpyrimidin-5-yl)-3-methylphenoxy]pyrrolo[2,1-f][1,2,4]triazine], with 56.4 nM.
Regarding `Cc1cc(Oc2nccn3nccc23)ccc1-c1c(C)ncnc1C` [Example 6, 4-[4-(4,6-dimethylpyrimidin-5-yl)-3-methylphenoxy]pyrazolo[1,5-a]pyrazine], the Ki under setting [1] was 61.3 nM.
On to `Cc1ncnc(C)c1-c1ccc(Oc2nccn3nccc23)cc1` [Example 7, 4-[4-(4,6-dimethylpyrimidin-5-yl)phenoxy]pyrazolo[1,5-a]pyrazine], for which, under setting [1], the Ki came to 514 nM.
With `Cc1cc(Oc2nccn3nccc23)ccc1-c1c(C)ncc2nccn12` [Example 8, 6-methyl-5-[2-methyl-4-(pyrazolo[1,5-a]pyrazin-4-yloxy)phenyl](8-^2H)imidazo[1,2-a]pyrazine], the Ki under setting [1] was found to be 107 nM.
The same measure, in the same setting: then `Cc1cc(Oc2ncnn3cccc23)ccc1-c1c(C)cnnc1C` [Example 9, 4-[4-(3,5-dimethylpyridazin-4-yl)-3-methylphenoxy]pyrrolo[2,1-f][1,2,4]triazine], with 35.8 nM.
As to `Cc1ncnc(C)c1-c1ccc(Oc2nccn3cccc23)cc1C#N` [Example 10, 2-(4,6-dimethylpyrimidin-5-yl)-5-(pyrrolo[1,2-a]pyrazin-1-yloxy)benzonitrile], the Ki was 63.9 nM.
With `Cc1ncnc(C)c1-c1ccc(Oc2nccn3nccc23)cc1C#N` [Example 11, 2-(4,6-dimethylpyrimidin-5-yl)-5-(pyrazolo[1,5-a]pyrazin-4-yloxy)benzonitrile], the Ki under setting [1] was 1820 nM.
Consider `Cc1n[nH]c(=O)c(C)c1-c1ccc(Oc2nccn3cccc23)cc1` [Example 14, 4,6-dimethyl-5-[4-(pyrrolo[1,2-a]pyrazin-1-yloxy)phenyl]pyridazin-3(2H)-one], for which the Ki under setting [1] was 18.8 nM.
As for `Cc1c(-c2ccc(Oc3nccn4cccc34)cc2)n(C)c(=O)[nH]c1=O` [Example 15, 1,5-dimethyl-6-[4-(pyrrolo[1,2-a]pyrazin-1-yloxy)phenyl]pyrimidine-2,4(1H,3H)-dione], the Ki under setting [1] is 7.3 nM.
For the compound `Cc1ncnc(C)c1-c1ccc(Oc2ncnn3cccc23)cc1F` [Example 16, 4-[4-(4,6-dimethylpyrimidin-5-yl)-3-fluorophenoxy]pyrrolo[2,1-f][1,2,4]triazine], under setting [1], the Ki is 58.2 nM.
On the same count and under the same terms, then `Cc1ncnc(C)c1-c1ccc(Oc2nccn3nccc23)cc1F` [Example 17, 4-[4-(4,6-dimethylpyrimidin-5-yl)-3-fluorophenoxy]pyrazolo[1,5-a]pyrazine], with 183 nM; and `Cc1cc(Oc2ncnn3cccc23)ccc1-c1c(C)nc2ncccn12` [Example 18, 4-[3-methyl-4-(2-methylimidazo[1,2-a]pyrimidin-3-yl)phenoxy]pyrrolo[2,1-f][1,2,4]triazine], with 1150 nM.
On the same count and under the same terms, with `COc1cc(Oc2ncnn3cccc23)ccc1-c1c(C)ncnc1C` [Example 19, 4-[4-(4,6-dimethylpyrimidin-5-yl)-3-methoxyphenoxy]pyrrolo[2,1-f][1,2,4]triazine] the figure was 672 nM; with `Cc1ncnc(C)c1-c1ccc(Oc2nccn3cccc23)cc1F` [Example 20, 1-[4-(4,6-dimethylpyrimidin-5-yl)-3-fluorophenoxy]pyrrolo[1,2-a]pyrazine], 59.3 nM.
Same read-out and setting: with `Cc1ncnc(C)c1-c1ccc(Oc2nccn3cccc23)cc1` [Example 21, 1-[4-(4,6-dimethylpyrimidin-5-yl)phenoxy]pyrrolo[1,2-a]pyrazine] the figure was 102 nM; with `Cc1cnnc(C)c1-c1ccc(Oc2ncnn3cccc23)cc1F` [Example 22, 4-[4-(3,5-dimethylpyridazin-4-yl)-3-fluorophenoxy]pyrrolo[2,1-f][1,2,4]triazine], 105 nM; with `COc1cc(Oc2nccn3nccc23)ccc1-c1c(C)ncnc1C` [Example 23, 4-[4-(4,6-dimethylpyrimidin-5-yl)-3-methoxyphenoxy]pyrazolo[1,5-a]pyrazine], 894 nM.
As to `COc1cc(Oc2ncnn3cccc23)ccc1-c1cccnc1C` [Example 24, 4-[3-methoxy-4-(2-methylpyridin-3-yl)phenoxy]pyrrolo[2,1-f][1,2,4]triazine], the Ki under setting [1] came out at 83.9 nM.
`COc1cc(Oc2nccn3cccc23)ccc1-c1cccnc1C` [Example 25, 1-[3-methoxy-4-(2-methylpyridin-3-yl)phenoxy]pyrrolo[1,2-a]pyrazine]: the Ki under setting [1] was 56.4 nM.
Regarding `Cc1ncnc(C)c1-c1cc(F)c(Oc2nccn3cccc23)cc1F` [Example 26, 1-[4-(4,6-dimethyipyrimidin-5-yl)-2,5-difluorophenoxy]pyrrolo[1,2-a]pyrazine], the Ki under setting [1] came to 86.1 nM.
Still for that read-out and setting: then `COc1cc(Oc2nccn3cccc23)ccc1-c1c(C)cnnc1C` [Example 27, 1-[4-(3,5-dimethylpyridazin-4-yl)-3-methoxyphenoxy]pyrrolo[1,2-a]pyrazine], with 28.1 nM.
With `Cc1cc(Oc2nccn3cccc23)ccc1-c1c(C)nnc2nccn12` [Example 28, 3-methyl-4-[2-methyl-4-(pyrrolo[1,2-a]pyrazin-1-yloxy)phenyl]imidazo[2,1-c][1,2,4]triazine], the Ki under setting [1] worked out at 198 nM.
As to `Cc1ncnc(C)c1-c1cc(F)c(Oc2ncnn3cccc23)cc1F` [Example 29, 4-[4-(4,6-dimethylpyrimidin-5-yl)-2,5-difluorophenoxy]pyrrolo[2,1-f][1,2,4]triazine], the Ki under setting [1] amounted to 85.7 nM.
The same measure, in the same setting: with `Cc1ncnc(C#N)c1-c1ccc(Oc2nccn3cccc23)cc1F` [Example 30, 5-[2-fluoro-4-(pyrrolo[1,2-a]pyrazin-1-yloxy)phenyl]-6-methylpyrimidine-4-carbonitrile] the figure was 59 nM.
`Cc1ncnc(C)c1-c1ccc(Oc2nccn3cccc23)c(F)c1C` [Example 31, 1-[4-(4,6-dimethylpyrimidin-5-yl)-2-fluoro-3-methylphenoxy]pyrrolo[1,2-a]pyrazine]: under setting [1], the Ki worked out at 179 nM.
Regarding `Cc1ncnc(C)c1-c1ccc(Oc2ncnn3cccc23)c(F)c1C` [Example 32, 4-[4-(4,6-dimethylpyrimidin-5-yl)-2-fluoro-3-methylphenoxy]pyrrolo[2,1-f][1,2,4]triazine], the Ki under setting [1] was 116 nM.
Consider `Cc1ncnc(C)c1-c1ccc(Oc2ncnn3cccc23)c(F)c1` [Example 33, 4-[4-(4,6-dimethylpyrimidin-5-yl)-2-fluorophenoxy]pyrrolo[2,1-f][1,2,4]triazine], for which the Ki under setting [1] came out at 252 nM.
The same measure, in the same setting: with `Cc1ncnc(C)c1-c1ccc(Oc2nccn3cccc23)c(F)c1` [Example 34, 1-[4-(4,6-dimethylpryimidin-5-yl)-2-fluorophenoxy]pyrrolo[1,2-a]pyrazine] the figure was 49.4 nM; with `Cc1cc(Oc2nccn3cccc23)c(F)cc1-c1c(C)ncnc1C` [Example 35, 1-[4-(4,6-dimethylpyrimidin-5-yl)-2-fluoro-5-methylphenoxy]pyrrolo[1,2-a]pyrazine], 31.5 nM.
Still for that read-out and setting: with `Cc1ncnc(C)c1-c1ccc(Oc2ncnn3cccc23)cc1Cl` [Example 36, 4-[3-chloro-4-(4,6-dimethylpyrimidin-5-yl)phenoxy]pyrrolo[2,1-f][1,2,4]triazine] the figure was 48.7 nM; with `Cc1ncnc(C)c1-c1ccc(Oc2nccn3cccc23)cc1Cl` [Example 37, 1-[3-chloro-4-(4,6-dimethylpyrimidin-5-yl)phenoxy]pyrrolo[1,2-a]pyrazine], 12.7 nM.
For the compound `Cc1ncnc(C)c1-c1ccc(Oc2ncnn3cccc23)cc1C#N` [Example 38, 2-(4,6-dimethylpyrimidin-5-yl)-5-(pyrrolo[2,1-f][1,2,4]triazin-4-yloxy)benzonitrile], under setting [1], the Ki came out at 141 nM.
Same read-out and setting: with `Cc1cc(Oc2ncnn3cccc23)ccc1-c1c(C)ncc(=O)n1C` [Example 39, 1,5-dimethyl-6-[2-methyl-4-(pyrrolo[2,1-f][1,2,4]triazin-4-yloxy)phenyl]pyrazin-2(1H)-one] the figure was 31.2 nM; with `Cc1cc(Oc2ccnc3ccnn23)ccc1-c1c(C)ncnc1C` [Example 40, 7-[4-(4,6-dimethylpyrimidin-5-yl)-3-methylphenoxy]pyrazolo[1,5-a]pyrimidine], more than 6400 nM.
Same read-out and setting: with `COc1cc(Oc2nccn3cccc23)ccc1-c1c(C)ncnc1C` [Example 41, 1-[4-(4,6-dimethylpyrimidin-5-yl)-3-methoxyphenoxy]pyrrolo[1,2-a]pyrazine] the figure was 34.7 nM.
